Results on 23 compounds are retold here after ChEMBL document CHEMBL3994671, “Similarity- and Substructure-Based Development of β2-Adrenergic Receptor Ligands Based on Unusual Scaffolds” (ACS Med Chem Lett, 2017).

Calls of active or inactive are those of the source. The rule behind the calls is not given here.

The target of assay [1] is T1, Beta-2 adrenergic receptor (Homo sapiens, UniProt P07550). The assay can be described thus: Displacement of [3H]DHA from beta2-AR (unknown origin) expressed in baculovirus infected sf9 cell membranes after 1 hr by scintillation counting method. In general terms: Loss of bound radioactivity is the signal in a displacement assay; it reports binding, not function.
Target sequence in this assay (P07550 whole entry): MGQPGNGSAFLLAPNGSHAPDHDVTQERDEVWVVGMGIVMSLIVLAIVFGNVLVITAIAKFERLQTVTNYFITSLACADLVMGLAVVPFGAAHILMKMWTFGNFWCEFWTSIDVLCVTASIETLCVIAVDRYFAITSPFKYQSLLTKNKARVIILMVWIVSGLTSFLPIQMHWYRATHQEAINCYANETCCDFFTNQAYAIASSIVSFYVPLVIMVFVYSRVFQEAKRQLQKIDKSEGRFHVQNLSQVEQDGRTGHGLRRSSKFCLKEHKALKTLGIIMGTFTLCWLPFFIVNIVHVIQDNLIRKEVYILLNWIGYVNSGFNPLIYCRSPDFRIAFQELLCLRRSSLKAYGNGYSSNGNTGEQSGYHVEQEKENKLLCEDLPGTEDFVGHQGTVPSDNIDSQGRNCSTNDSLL
Assay [2] concerns the target T1, Beta-2 adrenergic receptor. The assay can be described thus: Displacement of [3H](-)CGP12177 from human beta2-AR expressed in CHOK1 cells after 2 hrs by TopCount microscintillation counting method. Type of assay: cell-based.
The species named for another assay is Homo sapiens. In words: Selectivity ratio of Kd for human beta1-AR expressed in CHOK1 cells to Kd for human beta2-AR expressed in CHOK1 cells. Type of assay: cell-based.
Assay [3] addresses T2, Beta-1 adrenergic receptor (Homo sapiens, UniProt P08588). The assay can be described thus: Displacement of [3H](-)CGP12177 from human beta1-AR expressed in CHOK1 cells after 2 hrs by TopCount microscintillation counting method. Type of assay: cell-based.
Target sequence in this assay (P08588 whole entry): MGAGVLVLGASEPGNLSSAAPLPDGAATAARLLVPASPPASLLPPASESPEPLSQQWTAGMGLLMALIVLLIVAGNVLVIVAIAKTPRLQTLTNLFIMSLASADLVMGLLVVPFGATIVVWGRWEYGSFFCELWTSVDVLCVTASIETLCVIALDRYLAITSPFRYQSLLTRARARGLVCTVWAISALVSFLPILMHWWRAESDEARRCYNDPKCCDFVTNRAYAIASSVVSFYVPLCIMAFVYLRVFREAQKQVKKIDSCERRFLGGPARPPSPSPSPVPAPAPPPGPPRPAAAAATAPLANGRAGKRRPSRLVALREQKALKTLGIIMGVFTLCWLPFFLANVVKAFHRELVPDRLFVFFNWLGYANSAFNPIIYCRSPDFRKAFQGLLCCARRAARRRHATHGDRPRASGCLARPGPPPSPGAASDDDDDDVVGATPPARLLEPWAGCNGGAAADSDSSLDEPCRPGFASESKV
The target of assay [4] is T1, Beta-2 adrenergic receptor. The assay can be described thus: Neutral antagonist activity at human beta2-AR expressed in CHOK1 cells assessed as inhibition of cimaterol-induced CRE-SPAP production at 100 uM after 5 hrs. Type of assay: functional, cell-based.
Target sequence in this assay (P07550 whole entry, looked up): as the sequence (P07550 whole entry) above
Assay [5] addresses T2, Beta-1 adrenergic receptor. In words: Neutral antagonist activity at human beta1-AR expressed in CHOK1 cells assessed as inhibition of cimaterol-induced CRE-SPAP production at 100 uM after 5 hrs. Type of assay: functional, cell-based.
Target sequence in this assay (P08588 whole entry, looked up): as the sequence (P08588 whole entry) above
In assay [6] the target is T1, Beta-2 adrenergic receptor. In words: Antagonist activity at human beta2-AR expressed in CHOK1 cells assessed as inhibition of cimaterol-induced CRE-SPAP production at 100 uM after 5 hrs. Type of assay: functional, cell-based.
Target sequence in this assay (P07550 whole entry, looked up): as the sequence (P07550 whole entry) above
For assay [7], the target named is T2, Beta-1 adrenergic receptor. The assay can be described thus: Antagonist activity at human beta1-AR expressed in CHOK1 cells assessed as inhibition of cimaterol-induced CRE-SPAP production at 100 uM after 5 hrs. Type of assay: functional, cell-based.
Target sequence in this assay (P08588 whole entry, looked up): as the sequence (P08588 whole entry) above
Assay [8] addresses T1, Beta-2 adrenergic receptor. The assay can be described thus: Antagonist activity at human beta2-AR expressed in CHOK1 cells assessed as inhibition of cimaterol-induced CRE-SPAP production at 20 uM after 5 hrs. Type of assay: functional, cell-based.
Target sequence in this assay (P07550 whole entry, looked up): as the sequence (P07550 whole entry) above
For assay [9], the target named is T2, Beta-1 adrenergic receptor. The assay can be described thus: Antagonist activity at human beta1-AR expressed in CHOK1 cells assessed as inhibition of cimaterol-induced CRE-SPAP production at 20 uM after 5 hrs. Type of assay: functional, cell-based.
Target sequence in this assay (P08588 whole entry, looked up): as the sequence (P08588 whole entry) above
For assay [10], the target named is T1, Beta-2 adrenergic receptor. The assay can be described thus: Antagonist activity at human beta2-AR expressed in CHOK1 cells assessed as inhibition of cimaterol-induced CRE-SPAP production at 2 uM after 5 hrs. Type of assay: functional, cell-based.
Target sequence in this assay (P07550 whole entry, looked up): as the sequence (P07550 whole entry) above
In assay [11] the target is T2, Beta-1 adrenergic receptor. The assay can be described thus: Antagonist activity at human beta1-AR expressed in CHOK1 cells assessed as inhibition of cimaterol-induced CRE-SPAP production at 2 uM after 5 hrs. Type of assay: functional, cell-based.
Target sequence in this assay (P08588 whole entry, looked up): as the sequence (P08588 whole entry) above
For assay [12], the target named is T2, Beta-1 adrenergic receptor. In words: Displacement of [3H](-)CGP12177 from human beta1-AR expressed in CHOK1 cells at 20 to 100 uM after 2 hrs by TopCount microscintillation counting method relative to control. Type of assay: cell-based.
Target sequence in this assay (P08588 whole entry, looked up): as the sequence (P08588 whole entry) above
In assay [13] the target is T2, Beta-1 adrenergic receptor. The assay can be described thus: Partial agonist activity at human beta1-AR expressed in CHOK1 cells assessed as CRE-SPAP production after 5 hrs. Type of assay: functional, cell-based.
Target sequence in this assay (P08588 whole entry, looked up): as the sequence (P08588 whole entry) above
The target of assay [14] is T2, Beta-1 adrenergic receptor. The assay can be described thus: Partial agonist activity at human beta1-AR expressed in CHOK1 cells assessed as CRE-SPAP production after 5 hrs in presence of beta1-AR antagonist CGP20712A. Type of assay: functional, cell-based.
The target in assay [15] is T1, Beta-2 adrenergic receptor. The assay can be described thus: Partial agonist activity at human beta2-AR expressed in CHOK1 cells assessed as inhibition of cimaterol-induced CRE-SPAP production after 5 hrs. Type of assay: functional, cell-based.
Target sequence in this assay (P07550 whole entry): as the sequence (P07550 whole entry) above
Assay [16] deals with T2, Beta-1 adrenergic receptor. In words: Partial agonist activity at human beta1-AR expressed in CHOK1 cells assessed as inhibition of cimaterol-induced CRE-SPAP production after 5 hrs. Type of assay: functional, cell-based.

For the compound `CCNCCOc1ccccc1-c1ccccc1`, the inhibition constant Ki (in general, the dissociation constant of the complex between target and ligand, obtained from inhibition or displacement) in assay [1] is 9 to 3200 nM.
Turning to `C[n+]1c(/C=C/Nc2ccccc2)sc2ccccc21`, in assay [2] (read-out: pKd (converted)), the Kd is 38.9 µM. Further, the Selectivity ratio in the assay filed under Homo sapiens was found to be 6.6.
Consider `CN(C)CCOCCOc1ccccc1-c1ccccc1`, for which the values for the Kd in [2] (read-out: pKd (converted)) and in assay [3] were 3.8 µM and 45.7 µM, respectively. Besides, the Selectivity ratio in the assay listed under Homo sapiens is 12. The inhibition entry in assay [4] and in assay [5] was “Active” in each case.
For the compound `CC(C)(C)NCC(O)COc1ccccc1-c1ccccc1` (centres undefined) [BERLAFENONE], the Kd in assay [2] (read-out: Kd) stood at 3.5e-05 µM.
Compound `Cc1cc(O)c(CN2CCCC2)c2c1C(=O)/C(=C\c1ccco1)O2` registered a Ki in assay [1] of 9 to 3200 nM.
Turning to `Cc1cc(O)c(CN(C)C)c2c1C(=O)/C(=C/c1ccccc1)O2`, the Selectivity ratio in the assay listed under Homo sapiens worked out at 1.9.
Regarding `C[n+]1c(/C=C/c2ccccc2Cl)sc2ccccc21`, the Kd was 4.9 µM in assay [2] (read-out: pKd (converted)) and 13.8 µM in assay [3]. Moreover, the Selectivity ratio in the assay listed under Homo sapiens was 2.8.
The compound `CC(O)CNCCOc1ccccc1-c1ccccc1` (centres undefined) had a Ki in assay [1] of 9 to 3200 nM.
For the compound `Cc1cc(O)c(CN2CCCC2)c2c1C(=O)/C(=C/c1cc3ccccc3o1)O2`, the Selectivity ratio in the assay filed under Homo sapiens was found to be 2.6.
As for `C[n+]1c(C2=C(N)N(c3ccccc3)CC2=O)sc2ccccc21`, the inhibition (as a rule, the relative decrease from the control value, in per cent) in assay [2] was “inactive”.
Regarding `COc1cccc(/C=C2\Oc3c(CN4CCN(C)CC4)c(O)cc(C)c3C2=O)c1`, the Kd in assay [2] (read-out: pKd (converted)) is 17.4 µM; in [3], 26.3 µM. In addition, in the assay filed under Homo sapiens, the Selectivity ratio was 1.5.
For the compound `C=CCNCCOc1ccccc1-c1ccccc1`, the figures for the Kd in [2] (read-out: pKd (converted)) and in assay [3] were 2.63 µM and 27.5 µM, respectively. The Selectivity ratio in the assay filed under Homo sapiens stood at 10.5. The inhibition entry in [6] and in assay [7] was “Active” throughout.
Regarding `COCCNCCOc1ccccc1-c1ccccc1`, the inhibitory constant (Ki) in assay [1] was in the range of 9 to 3200 nM.
In [1], `CCN1C(=Cc2sc3ccccc3[n+]2C)C=Cc2cccc(C)c21` showed a Ki of 9 to 3200 nM.
Turning to `COc1ccc(C(=O)C[n+]2c(C)n(C(F)F)c3ccccc32)cc1`, in [2], the inhibition result is “Active”. Besides, the inhibition entry in [6] and in [7] was “inactive” in each case.
On to `CCOC(=O)C1Oc2cccc(OCC(O)CNC(C)C)c2C1C` (centres undefined), for which, in assay [1], the inhibition constant Ki lay in the range of 9 to 3200 nM.
`CN(C)CCOc1ccc2ccccc2c1C=O`: the Kd in assay [2] (read-out: pKd (converted)) was 23.4 µM. Moreover, the Selectivity ratio in the assay filed under Homo sapiens worked out at 4.2.
Turning to `COc1cccc(/C=C2\Oc3c(CN4CCCC4)c(O)cc(C)c3C2=O)c1`, the Kd was 5.5 µM in assay [2] (read-out: pKd (converted)) and 35.5 µM in assay [3]. For the same compound, the Selectivity ratio in the assay filed under Homo sapiens was found to be 6.5. Moreover, the inhibition result in [6] and in assay [7] was “Active” in each case.
For the compound `CCOC(=O)c1cc(/C=C/c2sc3ccccc3[n+]2C)c2sc3ccccc3n12`, the Kd was 0.891 µM in [2] (read-out: pKd (converted)) and 3.09 µM in assay [3]. Further, in the assay filed under Homo sapiens, the Selectivity ratio came out at 3.5. Also, the inhibition entry in [8], in [9] and in [10] was “Active” throughout. Also, the inhibition result in [11] is “inactive”.
Consider `Cc1n(-c2ccccc2)c2ccc(Cl)cc2[n+]1CCO`, for which, in [2], the inhibition entry was “Active”. Further, the inhibition result in [6] and in assay [7] was “inactive” throughout.
As for `CCCCN(C)Cc1c(O)cc(C)c2c1O/C(=C\c1cc3cc(Br)ccc3o1)C2=O`, in assay [12], the inhibition was < 50%.
With `COc1cccc(/C=C2\Oc3c(CN(C)C)c(O)cc(C)c3C2=O)c1`, the Kd in assay [2] (read-out: pKd (converted)) is 21.9 µM; in [3], 44.7 µM. Further, the Selectivity ratio in the assay listed under Homo sapiens worked out at 2.
Regarding `CC(C)(C)NC[C@@H](O)COc1ccccc1-c1ccccc1`, the Kd in assay [2] (read-out: pKd (converted)) is 3.55e-05 µM; in [3] it was 0.000977 µM; in assay [15] it was 0.0182 nM. In addition, in the assay filed under Homo sapiens, the Selectivity ratio worked out at 27.5. The result in assay [13] was Active. The result in assay [14] was inactive. Further, in assay [16], the inhibition entry was “Active”.
